From patent US12295997B2, “Prostate neoantigens and their uses” (Janssen Biotech, Inc., priority 2020, dated 2025)

Tested on: CD8+ and CD4+ T cells (autologous CD3+ Pan-T cells isolated from human normal PBMCs)
Assay: Exogenous autologous normal donor restimulation assay (15-mer overlapping peptide pools on CD1c+ dendritic cells, TNFα/IFNγ flow cytometry)
Assay type: cell-based
Details: 15-mer overlapping peptide pool; for Maximum Fold Change Over Background CD4+ cells / Maximum Fold Change Over Background CD8+ cells / Maximum Frequency of TNFα/IFNγ Double Positive CD4+ T cells / Maximum Frequency of TNFα/IFNγ Double Positive CD8+ T cells: Table 25; for Maximum Fold Change Over Background CD4+ cells: TNFα+IFNγ+ CD4+ T cells; for Maximum Fold Change Over Background CD4+ cells / Maximum Fold Change Over Background CD8+ cells: highest fold change over negative control across normal donors; for Maximum Fold Change Over Background CD8+ cells: TNFα+IFNγ+ CD8+ T cells; for Maximum Frequency of TNFα/IFNγ Double Positive CD4+ T cells / Maximum Frequency of TNFα/IFNγ Double Positive CD8+ T cells: highest frequency across normal donors; for Max. Fold Change over background CD4+ TNFαINFγ double positive DP / Max. Fold Change over background CD8+ TNFαINFγ double positive DP / Max. Frequency of CD4+ TNFαINFγ DP / Max. Frequency of CD8+ TNFαINFγ DP: Table 28, additional neoantigens, highest across normal donors
Method: CD1c+ Dendritic Cells (DC) isolated from human normal PBMCs were thawed using media (IMDM (Gibco) supplemented with glutamine, HEPES, 5% human serum (Sigma), and 1× Pen-Strep). DC cells were resuspended in media supplemented with IL-4 (Peprotech, 80 ng/mL) and GM-CSF (Gibco, 80 ng/mL), plated in 6 well microplates, and rested overnight at 37° C. (5% CO2). The following day, DC cells were counted and plated in a 96 well round bottom microplate at a concentration of 30,000 viable cells per well. Lyophilized peptides (15-mer overlapping peptides) were solubilized in 100% DMSO and pooled by neoantigen to between 5 mg/mL and 20 mg/mL. Neoantigen peptides pools were added to DCs for a final concentration of […] and rested for 2 hours at 37° C. (5% CO2). CEF Peptide Pool “Plus” (Cellular Technologies, Ltd.) was utilized as a positive control and DMSO at the same final concentration as the experimental peptides was utilized as a negative control. After 2 hours, DC cells were irradiated with 50 gray of ionizing radiation. Autologous CD3+ Pan-T cells isolated from human normal PBMCs were thawed using media. Following irradiation, autologous Pan-T cells were added to the irradiated DCs at 300,000 viable cells per well. Human IL-15 (Peprotech) was added to all wells at final concentration of 10 ng/mL.
Plates were incubated at 37° C. (5% CO2) for a total of 12 days. Media was refreshed every 2-3 days with IL-15 (10 ng/mL final concentration) and IL-2 (R&D systems, 10 IU/mL final concentration). On day 11 cells were re-stimulated with identical experimental peptide pools or controls, at same concentration as peptide stimulation on Day 1. Protein Inhibitor Cocktail (eBioscience) was added to every well and plate was incubated overnight at 37° C. (5% CO2).
On day 12, cells were stained for intracellular flow cytometry analysis. The cells were washed with PBS and stained with Live/Dead Fixable Aqua Dead Cell stain (Thermo-Fisher). Following the live/dead stain, cells were blocked using Biotin-Free Fc Receptor Blocker (Accurate Chemical & Scientific Corp). Extracellular cellular flow panel (1 μL/antibody per well in 50 μL) consisted of CD3 PerCP-Cy5.5 (Biolegend), CD4 BV421 (Biolegend), and CD8 APC-Cy7 (Biolegend). After extracellular staining, cells were fixed using Foxp3/fTranscription Factor Staining Buffer Set (eBioscience) and stained for intracellular proteins (1:50 dilution) using TNFα FITC (R&D Systems) and IFNγ BV785 (Biolegend). Cells were washed and resuspended in stain buffer and analyzed using a BD Celesta flow cytometer.
Flow cytometry cell staining analysis was completed using FlowJo v10. Cells were gated on live, singlet, CD3+ cells. The CD8+ and CD4+ T cells were analyzed for TNFα/IFNγ expression and the frequency of double positive TNFα/IFNγ CD8+ and the frequency of double positive TNFα/IFNγ CD4+ T cells were recorded. Responses were assessed to be positive when the frequency of double positive TNFα/IFNγ CD8+ or TNFα/IFNγ CD4+ T cells due to stimulation with an experimental peptide pool was increased greater than or equal to 3-fold over the DMSO only negative control for that donor and at least 0.01%.
(§1) Overlapping 15-mer peptides were designed to span each neoantigen incorporated into NeoGAd20 and NeoMVA to assess their ability to activate T cells using the exogenous autologous normal donor restimulation assay described in Example 1 as pools using TNFα and IFNγ production by CD8^+ and CD4^+ T cells as a readout.
as §1, with “Immunogenicity of various additional identified neoantigens was assessed. Overlapping” for “Overlapping”, “similarly to what was done in Example 11” for “incorporated into NeoGAd20 and NeoMVA”

Substance	Maximum Fold Change Over Background CD4+ cells	Maximum Fold Change Over Background CD8+ cells	Maximum Frequency of TNFα/IFNγ Double Positive CD4+ T cells	Maximum Frequency of TNFα/IFNγ Double Positive CD8+ T cells	Max. Fold Change over background CD4+ TNFαINFγ double positive DP	Max. Fold Change over background CD8+ TNFαINFγ double positive DP	Max. Frequency of CD4+ TNFαINFγ DP	Max. Frequency of CD8+ TNFαINFγ DP
DYWAQKEKISIPRTHLC (listed as Homo sapiens) [AS6, ACSM1 alternative splicing]	31.67	6.50	0.380	0.078	–	–	–	–
IARELHQFAFDLLIKSH (listed as Homo sapiens) [Neoantigen M84, AR T878A]	35.84	1.39	0.31	0.03	–	–	–	–
DLRRVATYCAPLPSSWRPGTGTTIPPRMRSC (listed as Homo sapiens) [FUS23, NUDT14->JAG2 gene fusion]	–	–	–	–	12.77	11.05	0.12	0.62
TGGKSTCSAPGPQSLPSTPFSTYPQWVILITEL (listed as Homo sapiens) [AS57, KLK3 alternative splicing]	11.00	4.67	0.110	0.056	–	–	–	–
PVPTATPGVRSVTSPQGLGLFLKFI (listed as Homo sapiens) [AS9, CACNA1D alternative splicing]	–	–	–	–	4.18	3.81	0.16	0.12
KVLNEIDAVVTVPPSLSTSQIPQGCCIIL (listed as Homo sapiens) [AS20, PFKFB4 alternative splicing]	–	–	–	–	1.36	3.81	0.05	0.12
VETLENANSFSSGIQPLLCSLIGLENPT (listed as Homo sapiens) [AS58, CREB3L1 alternative splicing]	–	–	–	–	6.27	4.54	0.24	0.6
DYWAQKEKGSSSFLRPSC (listed as Homo sapiens) [AS7, ACSM1 alternative splicing]	2.50	52.60	0.045	2.630	–	–	–	–
GNTTLQQLGEASQAPSGSLIPLRLPLLWEVRG (listed as Homo sapiens) [AS16, LRRC45 alternative splicing]	7.78	24.17	0.140	0.290	–	–	–	–
VVGRRHETAPQPLLVPDRAGGEGGA (listed as Homo sapiens) [AS5, DHDH alternative splicing]	–	–	–	–	8.71	2.13	0.1	0.16
GLNLNTDRPGGYSYSIWWKNNAKNR (listed as Homo sapiens) [AS17, MPHOSPH9 alternative splicing]	–	–	–	–	3.18	2.38	0.01	0.07
LELELSEGVCFRLR (listed as Homo sapiens) [FUS10, DIP2A->DIP2A-IT1 gene fusion]	–	–	–	–	10.86	2.42	0.04	0.09
CGASACDVSLIAMDSA (listed as Homo sapiens) [FUS1, SLC45A3->ELK4 gene fusion]	8.33	1.94	0.100	0.031	–	–	–	–
TEISCCTLSSEENEYLPRPEWQLQ (listed as Homo sapiens) [FUS3, MSMB->NCOA4 gene fusion]	2.75	3.94	0.033	0.063	–	–	–	–
P37 (MAGGVLRRLLCREPDRDGDKGASREETVVPLHIGDPVVLPGIGQCYSALF; listed as Homo sapiens) [Neoantigen P37]	–	–	–	–	22.78	2.05	0.09	0.13
QQLRIFCAAMASNEDFS (listed as Homo sapiens) [FUS11, MBTPS2->YY2 gene fusion]	–	–	–	–	28.57	2.63	0.16	0.1
DGFSGSLFAVVTRRCYFLKWRTIFPQSLMWL (listed as Homo sapiens) [FUS18, OPN3->CHML gene fusion]	–	–	–	–	31.76	42.33	0.04	0.91
VAMMVPDRQVHYDFGL (listed as Homo sapiens) [AS3, DNAH8 alternative splicing]	3.86	7.92	0.054	0.095	–	–	–	–
MFLRKEQQVGPHSFSML (listed as Homo sapiens) [AS14, IQCG alternative splicing]	–	–	–	–	1.49	3.81	0.06	0.12
KRSFAVTERII (listed as Homo sapiens) [AS13, GRIN3A alternative splicing]	1.96	1.67	0.05	0.10	–	–	–	–
FMIGELVGELCCQLTFRLPFLESLCQAVVTQALRFNPSFQEVCIYQDTDLM (listed as Homo sapiens) [AS2, SLC30A4 alternative splicing]	–	–	–	–	110.68	5.06	0.86	0.09
GEVELSEGGEGQRHLAFPWACSGPGWRGVCCAAVEPA (listed as Homo sapiens) [AS32, TONSL alternative splicing]	–	–	–	–	2.04	3.81	0.08	0.12
ANLKGTLQVRSGQAVSPR (listed as Homo sapiens) [AS21, RECQL4 alternative splicing]	–	–	–	–	1.7	3.81	0.07	0.12
